Laboratory results taken from the supplement of paper PMC10307832.

Columns and labels:
Assay in all cases: relative viability (nuclei count vs DMSO), 5 days (fraction); higher = more cells survive
Metformin + Bortezomib = compound: CN(C)C(=N)NC(=N)N [Metformin] + CC(C)C[C@H](NC(=O)[C@H](Cc1ccccc1)NC(=O)c1cnccn1)B(O)O [Bortezomib] (partner 0.002 µM)
Outline: (§1)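 One day after seeding in 1536-well plates, lung cancer cell lines were dosed by pin tool. Dosing was either single-drug or a fixed anchor-drug dose plus five library-drug doses (not always all listed) in √10 steps. After 5 days, nuclei were stained in one fix-and-stain step and counted on 4× images, and relative viability is the nuclei count of treated wells over that of vehicle wells, given as the median of duplicate plates.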

Metformin + Pemetrexed = compound: CN(C)C(=N)NC(=N)N [Metformin] + Nc1nc2[nH]cc(CCc3ccc(C(=O)N[C@@H](CCC(=O)O)C(=O)O)cc3)c2c(=O)[nH]1 [Pemetrexed] (partner 0.2 µM)
Outline: as §1

Apatinib + Phenformin = compound: N#CC1(c2ccc(NC(=O)c3cccnc3NCc3ccncc3)cc2)CCCC1 [Apatinib] + N=C(N)NC(=N)NCCc1ccccc1 [Phenformin] (partner 250 µM)
Outline: as §1

Metformin + Navitoclax = compound: CN(C)C(=N)NC(=N)N [Metformin] + CC1(C)CCC(c2ccc(Cl)cc2)=C(CN2CCN(c3ccc(C(=O)NS(=O)(=O)c4ccc(N[C@H](CCN5CCOCC5)CSc5ccccc5)c(S(=O)(=O)C(F)(F)F)c4)cc3)CC2)C1 [Navitoclax] (partner 0.5 µM)
Outline: as §1

Cell Line	relative viability (Metformin + Bortezomib; first compound 10 µM)	relative viability (Metformin + Bortezomib; first compound 31.62 µM)	relative viability (Metformin + Bortezomib; first compound 100 µM)	relative viability (Metformin + Bortezomib; first compound 316.23 µM)	relative viability (Metformin + Bortezomib; first compound 1000 µM)	relative viability (Metformin + Pemetrexed; first compound 10 µM)	relative viability (Metformin + Pemetrexed; first compound 31.62 µM)	relative viability (Metformin + Pemetrexed; first compound 100 µM)	relative viability (Metformin + Pemetrexed; first compound 316.23 µM)	relative viability (Metformin + Pemetrexed; first compound 1000 µM)	relative viability (Apatinib + Phenformin; first compound 0.08 µM)	relative viability (Apatinib + Phenformin; first compound 0.253 µM)	relative viability (Apatinib + Phenformin; first compound 0.8 µM)	relative viability (Apatinib + Phenformin; first compound 2.53 µM)	relative viability (Apatinib + Phenformin; first compound 8 µM)	relative viability (Metformin + Navitoclax; first compound 10 µM)	relative viability (Metformin + Navitoclax; first compound 31.62 µM)	relative viability (Metformin + Navitoclax; first compound 100 µM)	relative viability (Metformin + Navitoclax; first compound 316.23 µM)	relative viability (Metformin + Navitoclax; first compound 1000 µM)
LCLC-103H	0.971	1.22	1.06	1.12	1.06	0.446	0.485	0.434	0.446	0.445	0.363	0.31	0.316	0.297	0.308	–	–	–	–	–
NCI-H1944	–	–	–	–	–	0.505	0.75	0.625	0.687	0.576	0.209	0.207	0.179	0.18	0.159	0.968	1.04	1.04	0.966	1.07
NCI-H2170	–	–	–	–	–	0.238	0.281	0.264	0.266	0.267	0.462	0.404	0.373	0.355	0.335	0.579	0.526	0.575	0.497	0.507
Calu-6	0.842	0.957	1.06	0.817	0.66	–	–	–	–	–	–	–	–	–	–	0.726	0.784	0.855	0.7	0.619
SW 900	–	–	–	–	–	0.52	0.479	–	0.507	0.477	0.714	0.606	0.54	0.362	0.425	–	–	–	–	–
NCI-H1703	0.389	0.394	0.453	0.42	0.505	–	–	–	–	–	–	–	–	–	–	1.18	1.15	1.16	0.854	0.735
NCI-H2342	–	–	–	–	–	–	1.13	0.751	0.786	0.752	0.526	0.588	0.585	0.569	0.577	–	–	–	–	–
LK-2	–	–	–	–	–	0.319	0.292	0.255	0.237	0.306	0.485	0.51	0.467	0.287	0.258	0.86	1.15	1.2	0.933	1.2
NCI-H1793	–	–	–	–	–	1.16	0.826	1.23	0.874	1.22	0.352	0.318	0.327	0.224	0.189	0.335	0.395	0.482	0.442	0.489
NCI-H727	1.05	0.756	1.02	0.774	0.934	–	–	–	–	–	0.566	0.542	0.528	0.539	0.514	0.503	0.514	0.496	0.512	0.535
NCI-H1623	–	–	–	–	–	–	–	–	–	–	0.601	0.624	0.636	0.511	0.616	–	–	–	–	–
ABC-1	–	0.294	0.334	0.277	0.344	–	–	–	–	–	–	0.264	0.234	0.217	0.249	–	–	–	–	–
NCI-H1563	0.917	0.866	1.02	0.877	0.954	0.874	0.899	0.847	0.89	0.921	0.642	0.705	0.75	0.517	0.623	–	–	–	–	–
IA-LM	–	1.14	1.03	0.893	0.624	–	–	–	–	–	–	–	–	–	–	–	0.93	0.941	0.686	0.645
